Test results: PMC3446921, “Enhanced Solubilisation of Six PAHs by Three Synthetic Cyclodextrins for Remediation Applications: Molecular Modelling of the Inclusion Complexes” (PLoS ONE, 2012)
Values after ≈ are worked out from the molar mass of the structure shown. Values joined by “and” are separate entries in the source; they are usually repeats but may differ in a detail not shown here. Identical values can stand only once.

How the values were obtained:
[1] = ref [40], cited from earlier work
[2] = Phase solubility studies: comparison of the six PAHs across the three CDs; details: for Decreasing order of Se and Kc: per CD; for Decreasing order of PAHs apparent solubility: reached with 0.1 M of the CD
[3] = Phase solubility studies (Higuchi and Connors) with RAMEB; details: for Apparent stability constant Kc: RAMEB 0 to 0.1 M, 1:1 complex, 25°C; for solubility at 1 week: 25 °C, aqueous with cosolvent or surfactant or cyclodextrin, thermodynamic from solid
[4] = Phase solubility studies (Higuchi and Connors) with HP-β-CD; details: for Apparent stability constant Kc: HP-β-CD 0 to 0.1 M, 1:1 complex, 25°C
[5] = PAHs aqueous solubility in the absence of CD; details: 25 °C, water, thermodynamic from solid
Description: (§1) 5 mg of each PAH were added to aqueous solutions (10 mL) containing increasing dissolved concentrations (from 0 to 0.1 M) of each CD. The experiments were carried out in triplicate. Flasks were sealed and shaken at 25°C for 1 week. The concentration of each PAH in solution was determined using a Shimadzu HPLC chromatograph equipped with a chromatographic column, Kromasil 100 C18 reverse-phase (5 µm, 15×0.4), coupled to a fluorescence detector (Shimadzu RF-10APXL). The chromatographic conditions were as follows: mobile phase, acetonitrile/water (60∶40); flow, 1.5 mL min^−1; temperature, 30°C. […] To obtain the phase solubility diagrams, the concentration of the PAHs dissolved versus the increasing concentrations of the CDs used were represented.

[6] = Phase solubility studies (Higuchi and Connors) with HP-γ-CD; details: HP-γ-CD 0 to 0.1 M; 1:1 complex; 25°C
physchem [7] = details: 25 °C, water, thermodynamic from solid
Description: as §1

physchem [8] = details: 25 °C, aqueous with cosolvent or surfactant or cyclodextrin, thermodynamic from solid
[9] = 1 week
Description: as §1

For `c1cc2ccc3cccc4ccc(c1)c2c34` [PYR, pyrene], which “Kc with natural γ-CD” value ([1]; natural γ-CD, [41]) is on record?
Its value is 250 to 300 M⁻¹.

For hydroxypropyl-γ-CD [HP-γ-CD], which “Decreasing order of Se and Kc” value [2] is on record?
The value was “PYR>ACE>FLT>PHE>ANT>FLU”.

Which “Apparent stability constant Kc” value [3] does the source give for `c1cc2c3c(cccc3c1)CC2` [ACE, acenaphthene] here?
The value was 644 (±12) M^−1.

And the “Apparent stability constant Kc” value [4]?
The value was 661 (±35) M^−1.

What about the solubility at 1 week [5] of the same compound?
The solubility at 1 week was 1.93 µg/mL (≈ 12.5 µM).

And the “Apparent stability constant Kc” value [6]?
Its value is 758 (±41) M^−1.

What about the solubility at 1 week ([2]; 25 °C, aqueous with cosolvent or surfactant or cyclodextrin, thermodynamic from solid) of the same compound?
The solubility at 1 week was 125 to 147 µg/mL (≈ 811 to 953 µM).

For `c1ccc2c(c1)ccc1ccccc12` [PHE, phenanthrene], which “Apparent stability constant Kc” value [3] is on record?
The value was 4925 (±511) M^−1.

And the solubility at 1 week ([3]; aqueous RAMEB solution)?
Its solubility at 1 week is no more than 572 µg/mL.

What about the “Apparent stability constant Kc” value [4] of the same compound?
Its value is 3871 (±322) M^−1.

What about the “Kc value relative to that for ACE” value ([4]; HP-β-CD complexes) of the same compound?
Its value is roughly 6 fold.

What about the solubility at 1 week [5] of the same compound?
Its solubility at 1 week is 1.2 µg/mL (≈ 6.73 µM).

What about the “Apparent stability constant Kc” value [6] of the same compound?
Its value is 447 (±17) M^−1.

What does the source list for randomly methylated-β-CD [RAMEB]?
Decreasing order of Se and Kc [2]: ANT>PHE>FLT>FLU>ACE>PYR; Decreasing order of PAHs apparent solubility [2]: FLU≥PHE>ACE>FLT>ANT>PYR

With `c1ccc2cc3ccccc3cc2c1` [ANT, anthracene] as the compound, how does the solubility at 1 week [3] read?
Its solubility at 1 week is no more than 41 µg/mL.

And the “Apparent stability constant Kc” value [3]?
Its value is 5399 (±52) M^−1.

What about the “Kc value relative to the lowest one (PYR)” value ([3]; RAMEB complexes) of the same compound?
The value was “about 10 fold”.

And the “Apparent stability constant Kc” value [4]?
The value was 3284 (±204) M^−1.

What about the solubility at 1 week [5] of the same compound?
Its solubility at 1 week is 0.076 µg/mL (≈ 0.426 µM).

What about the “Apparent stability constant Kc” value [6] of the same compound?
The value was 234 M^−1 and 234 (±35) M^−1.

What about the “Kc with γ-CD” value ([1]; γ-CD, [42]) of the same compound?
Its value is 240 to 330 M⁻¹.

What does the source list for 2-Hydroxypropyl-β-CD [HP-β-CD]?
Decreasing order of Se and Kc [2]: PHE>ANT>FLT>FLU>PYR>ACE; Decreasing order of PAHs apparent solubility [2]: PHE≥FLU>ACE>FLT>ANT>PYR

For `c1ccc2c(c1)-c1cccc3cccc-2c13` [FLT, fluoranthene], which solubility (physchem [7]) is on record?
Its solubility is 0.26 µg/mL (≈ 1.29 µM).

And the solubility (physchem [8])?
The solubility was no more than 101 µg/mL.

For `c1ccc2c(c1)Cc1ccccc1-2` [FLU, fluorene], which “PAHs aqueous solubility (S)” value [9] is on record?
Its value is 1.90 µg/mL.

And the “Apparent stability constant Kc” value [3]?
Its value is 2906 (±164) M^−1.

What about the solubility at 1 week ([3]; aqueous RAMEB solution) of the same compound?
Its solubility at 1 week is no more than 574 µg/mL.
